Test results reported in article PMC8416643 (International Journal for Parasitology: Drugs and Drug …, 2021).
Several values for one entry are separate records, joined by “and”; a condition that tells them apart may be missing. Equal values may be shown once. Entries after “also recorded” stand apart in the source; their conditions may differ. Read-outs that look alike come from different tables or passages of the source.

Tests used:
[1] = system: N. caninum transgenic strain expressing β-galactosidase; assay: In vitro proliferation of Nc-β-gal tachyzoites in HFF monolayers (β-galactosidase readout); format: cell-based, Neospora caninum; conditions: compound added concomitantly to infection, 72 h
Protocol: In vitro efficacy assessments of ELQ-316, ELQ-334, ELQ-422, BKI-1748, and respective drug combinations were done using Nc-β-gal ([Barna et al., 2013]; [Schorer et al., 2012]). Briefly, HFF monolayers were cultured in 96-well plates and were infected with 10^3 Nc-β-gal tachyzoites in the presence of ELQ-316, ELQ-334, ELQ-422, and BKI-1748, as well as the combinations of BKI-1748 with each of the three ELQs. All drugs and combinations were prepared as serial dilutions of 20000, 2000, 200, 20, 2, 0.2, 0.02, 0.002 and 0.0002 nM in cell culture medium, respectively. The stock solutions of ELQs as well as the medium were heated up to 37 °C before use. After three days of culture (37 °C/5% CO2) in the presence of compounds, wells were washed with 200 μl PBS, and 90 μl of PBS containing 0.05% Triton X-100 were added into each well. After addition of 10 μl 5 mM chlorophenol red-β-D-galactopyranoside dissolved in PBS, the absorption shift was measured at a wavelength of 570 nm at various time points on an Enspire multilabel reader (Perkin Elmer, Waltham). The half-maximal effective concentrations (EC50 values) were calculated after the logit-log transformation of relative growth and subsequent regression analysis by use of the corresponding software tool contained in the Excel software package (Microsoft, Seattle, WA).

[2] = set-up: method as in Doggett et al., 2020; conditions: ref Doggett et al., 2020; cited from earlier work
[3] = system: BALB/c mice; assay: Assessment of potential interference in pregnancy in non-infected BALB/c mice; format: in vivo; conditions: ELQs 10 mg/kg, BKI-1748 20 mg/kg; for Fertility: corn oil, gavage, days 9–13 of pregnancy, pregnant/total females
Protocol: Thirty-six BALB/c female and 18 male mice, six weeks of age were used. […] After mating, males were removed and female mice were randomly allocated to six experimental groups (six mice per group, two females per cage). […] The placebo group received 100 μl corn oil for five consecutive days. […] During the experimental period, mice were examined daily and weighed several times during pregnancy to determine the number of pregnant animals and to detect possible abortions (which would result in rapid weight loss). On day 18 post-mating, pregnant females were separated into individual cages, where they gave birth on days 20–22 post mating. Live and stillborn pups were counted, and dead pups removed. Data on the number of female mice that became pregnant, litter size (number of delivered pups per dam), stillborn mice (dead pups from birth until day two post-partum), post-natal mortality (dead pups from day three post-partum to the end of the experiment), and clinical signs of treated mice were recorded. Dams and live pups were monitored for two weeks after birth to rule out possible adverse effects due to treatments. At the end of the experiment, mice were euthanized in a euthanasia chamber using isoflurane and CO2.

[4] = system: N. caninum NcSp-7 tachyzoites; set-up: method as in Anghel et al., 2018; conditions: ref Anghel et al., 2018, cited from earlier work
[5] = system: N. caninum NcSp-7 tachyzoites; conditions: BKI-1748 20 mg/kg
Protocol: Ninety BALB/c female mice and 45 male mice, six weeks of age were used in this experiment. Oestrus synchronization and mating was performed as described above. After mating, (day 0) female mice were randomly assigned to seven groups: ELQ-334 (n = 14), ELQ-422 (n = 14), BKI-1748 (n = 14), ELQ-334 + BKI-1748 (n = 14), ELQ-422 + BKI-1748 (n = 14), positive control (corn oil treatment and infection, n = 14), and negative control (corn oil treatment without infection, n = 6). NcSp-7 tachyzoites were transferred from HFF cells to BALB/c dermal fibroblasts and maintained at 37 °C and 5% CO2 three days prior to infection ([Imhof et al., 2021]). On day 7, tachyzoites were harvested and prepared for infection as previously described ([Arranz-Solís et al., 2015]). In brief, tachyzoite-infected fibroblasts were recovered from culture flasks when they were >90% of intracellular tachyzoites still located in parasitophorous vacuoles, and infected cells were repeatedly passed through a 25-gauge needle at 4 °C. […] A sublethal dose of 10^5 tachyzoites in 100 μl were administered to each mouse by subcutaneous injection. The negative control group was inoculated with 100 μl dermal fibroblasts. From two days post-infection (day 9), compounds were administered in 100 μl corn oil on days nine to 13 of pregnancy, calculated after the first day of mating, as follows: ELQ-334 was administered at 5 mg/kg, ELQ-422 at 7.5 mg/kg, and BKI-1748 was administered at 20 mg/kg. The combined treatment groups were: ELQ-334 at 5 mg/kg + BKI-1748 at 20 mg/kg, and ELQ-422 at 7.5 mg/kg + BKI-1748 at 20 mg/kg. The positive and negative controls received 100 μl corn oil for five consecutive days. On day 18, pregnant females were separated into individual cages, they gave birth on days 20–22, and were allowed to rear their pups for 28 days until day 48–50. Live and stillborn pups were counted, and dead pups were removed, and the non-pregnant mice were also monitored during the following 30 days until day 50. Dams and their offspring were evaluated for clinical signs of disease, and data on the number of dams, stillborn pups and those dying postnatally were monitored. All mice were euthanized four weeks post-partum as described above. Blood was collected by cardiac puncture, centrifuged, and serum was stored at −20 °C for subsequent analysis of IgG1 and IgG2a levels by ELISA. Brain was collected and stored at −20 °C prior to further processing.
For the quantification of the brain parasite load in all the mice, a real-time PCR method designed for quantification of N. caninum DNA was employed ([Aguado-Martínez et al., 2019]; [Müller et al., 2002]). DNA extraction and purification were done with the NucleoSpin DNA RapidLyse Kit (Macherey-Nagel, Oensingen, Switzerland) employing the standard protocols. DNA concentrations in all samples were determined using the QuantiFluor double-stranded DNA (dsDNA) system (Promega, Madison, WI, USA) according to the manufacturer's instructions and adjusted to 5 ng/μl with sterile DNase-free water. Quantitative real-time PCR was performed using the Light Cycler (Roche, Basel, Switzerland), and parasite loads calculated with a standard curve of N. caninum DNA samples of 10, 100, and 1000 tachyzoites included in each run.
Levels of IgG1 and IgG2a in N. caninum infected mice were assessed by ELISA as described previously ([Debache et al, 2008], [2009]). Briefly, 96-well plates were coated with 200 ng NcSp-7 soluble tachyzoite protein extract diluted in coating buffer (50 mM sodium bicarbonate; 50 mM sodium carbonate both dissolved in ultrapure water; pH 9.6) per well.

[6] = system: T. gondii; set-up: method as in Doggett et al., 2020; Martynowicz et al., 2020; conditions: persistently T. gondii infected mice, ref Doggett et al., 2020, Martynowicz et al.; cited from earlier work
[7] = system: BALB/c mice; conditions: non-infected pregnant BALB/c, five times 10 mg/kg/day, pups from four dams; ref Anghel et al., 2018; cited from earlier work
[8] = BKI-1748 and ELQ-316 concentration in BALB/c mouse plasma (LC-MS/MS); format: in vivo; conditions: 1 h after final of 5 daily oral doses, ELQs 10 mg/kg, BKI-1748 20 mg/kg
Protocol: Thirty-six BALB/c female and 18 male mice, six weeks of age were used. Female mice were oestrus synchronized during three days by the Whitten effect ([Whitten, 1957]), and mated for three nights by housing one male with two females. After mating, males were removed and female mice were randomly allocated to six experimental groups (six mice per group, two females per cage). […] The placebo group received 100 μl corn oil for five consecutive days. […] Live and stillborn pups were counted, and dead pups removed. Data on the number of female mice that became pregnant, litter size (number of delivered pups per dam), stillborn mice (dead pups from birth until day two post-partum), post-natal mortality (dead pups from day three post-partum to the end of the experiment), and clinical signs of treated mice were recorded. Dams and live pups were monitored for two weeks after birth to rule out possible adverse effects due to treatments. […]
BKI-1748 and ELQ-316 concentrations in mouse plasma samples were determined as previously described ([Hulverson et al., 2019]; [Imhof et al., 2021]). Briefly, BKI-1748 and ELQ-316 were extracted from plasma using acetonitrile/0.1% formic acid with an internal standard and a standard curve was prepared for quantification. […]

Structure (SMILES) | EC50 [1] [nM] | Solubility [2] | Fertility [3] | Fertility ([3]; listed as ELQ-344) | Neonatal mortality ([3]; gavage days 9–13, pups born dead or died within 2 days post-partum) | Postnatal mortality ([3]; gavage days 9–13, pups that died during days 3–14 post-partum) | Pups per dam ([3]; gavage days 9–13 of pregnancy) | Reduction of vertical transmission ([4]; 10 mg/kg/day) [%] | Cerebral parasite burden in non-pregnant mice compared to the placebo group ([4]; 10 mg/kg) | Neonatal mortality ([4]; N. caninum infected pregnant mice, 10 mg/kg/day, pups from 10 dams) | Pups: Litter size ([5]; infected dams, ELQ-334 5 mg/kg, ELQ-422 7.5 mg/kg, days 9–13) | Pups: N. caninum PCR positive ([5]; infected dams, ELQ-334 5 mg/kg, ELQ-422 7.5 mg/kg, brains from surviving pups) | Vertical transmission of N. caninum to the pups ([5]; infected dams, ELQ-334 5 mg/kg, ELQ-422 7.5 mg/kg, positive control 100%) [%] | Inhibition of vertical transmission / pup infection ([5]; infected dams, ELQ-334 5 mg/kg/day) [%] | Non-pregnant females: Clinical signs ([5]; infected, ELQ-334 5 mg/kg, ELQ-422 7.5 mg/kg, days 9–13) | Dams: Total no. ([5]; infected, ELQ-334 5 mg/kg, ELQ-422 7.5 mg/kg, days 9–13, pregnant/total females) | Tissue cysts in the brain [6] | Neonatal mortality [7] | Plasma concentration ELQ-316 ([8]; non-pregnant mouse) | Plasma concentration ELQ-316 ([8]; pregnant mouse)
COc1cc2[nH]c(C)c(-c3ccc(Oc4ccc(OC(F)(F)F)cc4)cc3)c(=O)c2cc1F [ELQ-316] | 1.55 | low solubility; also recorded: poor solubility | – | – | – | – | – | – | – | – | – | – | – | – | – | – | – | – | – | –
CCOC(=O)Oc1c(-c2ccc(Oc3ccc(OC(F)(F)F)cc3)cc2)c(C)nc2cc(OC)c(F)cc12 [ELQ-334] | 54.2 | – | 2/6 | Two of six | two out of 11 and 2/11 | 1/9 | 11/2 | 50 | not notably reduced | seven out of 44 | 33 | 2/29 | 10.3 | > 90 | 0/8 | 6/14 | dramatic reduction of tissue cyst in the brain | one out of 27 | 11.16 µM and 15.81 µM and 13.24 µM | 12.71 µM and 18.58 µM
